Test results as given in patent US20100298300A1, “TRIAZOLOPYRAZINE COMPOUNDS USEFUL FOR THE TREATMENT OF DEGENERATIVE & INFLAMMATORY DISEASES” (priority 2006, published 2010).
pEC50, pIC50: −log10 of the molar value.

How the values were obtained:
[1] = test system: MMP1 expression by activated primary synovial fibroblasts; assay: 'MMP assay': MMP1 expression by complex trigger activated synovial fibroblasts (MMP1 ELISA); type: cell-based; details: Homo sapiens, Fibroblast; Table 3; RASFs, complex trigger, 48 hrs, MMP1 ELISA
[2] = test system: TNFα release by human PBMCs; assay: Cytokine release by LPS stimulated human PBMCs (TNFα ELISA); type: cell-based; details: PBMC, 24 h, Table 5, LPS 1 μg/mL
Experimental: For the assay PBMCs are seeded at 2.5E6 cells/mL in 160 μL in 96-well plates (Nunc). Serial dilution of the test compounds are made first in DMSO (Sigma) and then diluted 50-fold in M199 medium (Gibco) containing 1% heat-inactivated FBS. Compounds are further 1/10 diluted in the assay plates to obtain final DMSO concentration of 0.2%. Cells are preincubated with the compounds for 1 hr at 37° C., 5% CO2. Then, cells are stimulated with LPS (Escherichia coli serotype 026:B6, Cat. No. L2654, Sigma) that is added in a volume of 20 μL to a final concentration of 1 μg/mL and cells are further cultured for 24 hr. The plates are centrifuged and the supernatant is collected and stored at −80° C. until analysis of appropriate dilutions in ELISAs.
After 4 hr incubation at RT, blocking buffer is removed and plates are washed once with PBST (1×PBS with 0.05% Tween-20 (Sigma)). Then, 40 μL of sample is transferred to the ELISA plates and plates are incubated at 4° C. […] After 2 h of incubation at RT, plates are washed as described above and 35 μL/well of a 1/2000 dilution of streptavidin-HRP conjugate (Cat. No. SNN2004, Biosource) in buffer D is added. After 45 min, plates are washed as described above and incubated for 5 min with 50 μL/well BM Chemiluminescence ELISA Substrate POD (Roche). Readout is performed on the Luminoscan Ascent Luminometer (Labsystems) with an integration time of 100 msec delivering raw data (RLU: relative luminescence units). The following controls are included in the experiments, a maximal signal control, in which the cells are activated by LPS but only the 0.2% DMSO vehicle (and thus no compound) is added. […] A minimal signal control is also included in these experiments. Here, cells are not triggered. […] Where compounds are tested at 8 concentrations (1/3 serial dilution), EC50-values can be calculated by curve fitting of the means of the PIN data achieved for a compound at each test concentration.

MAPKAPK5 = biological target: T1, MAPKAPK5 (Homo sapiens, UniProt Q8IW41); assay: MAPKAP-K5 assay (FlashPlate kinase assay)
T1 sequence (Q8IW41 1-471 isoform Q8IW41-2): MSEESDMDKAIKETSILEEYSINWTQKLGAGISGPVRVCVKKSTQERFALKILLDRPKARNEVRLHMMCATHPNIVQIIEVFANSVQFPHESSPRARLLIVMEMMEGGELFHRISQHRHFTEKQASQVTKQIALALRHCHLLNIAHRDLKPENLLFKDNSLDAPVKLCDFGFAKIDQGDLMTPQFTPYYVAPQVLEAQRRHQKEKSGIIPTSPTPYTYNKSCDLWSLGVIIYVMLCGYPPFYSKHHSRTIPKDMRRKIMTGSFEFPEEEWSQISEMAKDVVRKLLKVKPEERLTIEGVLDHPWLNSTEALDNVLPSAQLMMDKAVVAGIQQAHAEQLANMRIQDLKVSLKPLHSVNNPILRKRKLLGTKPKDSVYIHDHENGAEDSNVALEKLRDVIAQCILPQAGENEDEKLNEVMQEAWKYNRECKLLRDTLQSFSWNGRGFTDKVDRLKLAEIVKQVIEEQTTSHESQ

SMILES | pEC50 [1] | pEC50 [2] | pIC50 (MAPKAPK5)
CN1CCN(c2ccc(Nc3ncc(-c4cc[nH]c(=O)c4)n4ncnc34)cc2)CC1 [Compound 4, 4-(8-(4-(4-methylpiperazin-1-yl)phenylamino)-[1,2,4]triazolo[1,5a]pyrazin-5-yl)pyridin-2(1H)-one] | < 6.00 | < 6.00 | < 6.00
NC(=O)c1ccc(-c2cnc(Nc3ccc(N4CCOCC4)cc3)c3ncnn23)cc1 [Compound 5] | 6.30 to 7.00 | < 6.00 | < 6.00
CN1CCN(c2ccc(Nc3ncc(-c4csc(C(N)=O)c4)n4ncnc34)cc2)CC1 [Compound 6, 4-{8-[4-(4-Methyl-piperazin-1-yl)-phenylamino]-[1,2,4]triazolo[1,5-a]pyrazin-5-yl}-thiophene-2-carboxylic acid amide] | 6.30 to 7.00 | < 6.00 | 7.00 to 9.00
CN1CCN(c2ccc(Nc3ncc(-c4ccc(C(N)=O)c(F)c4)n4ncnc34)cc2)CC1 [Compound 7] | < 6.00 | < 6.00 | < 6.00
CN1CCN(c2ccc(Nc3ncc(-c4ccc(C(N)=O)cc4F)n4ncnc34)cc2)CC1 [Compound 8] | 6.00 to 6.30 | < 6.00 | < 6.00
CN1CCN(c2ccc(Nc3ncc(-c4ccc(C(N)=O)s4)n4ncnc34)cc2)CC1 [Compound 9, 5-{8-[4-(4-Methyl-piperazin-1-yl)-phenylamino]-[1,2,4]triazolo[1,5-a]pyrazin-5-yl}-thiophene-2-carboxylic acid amide] | 6.00 to 6.30 | 6.30 to 7.00 | 6.00 to 6.30
NC(=O)c1ccc(-c2cnc(Nc3ccc(N4CCOCC4)cc3)c3ncnn23)c(F)c1 [Compound 10] | 6.00 to 6.30 | < 6.00 | < 6.00
NC(=O)c1ccc(-c2cnc(Nc3ccc(N4CCOCC4)cc3)c3ncnn23)cc1F [Compound 11] | 6.30 to 7.00 | < 6.00 | < 6.00
Cc1[nH]ncc1-c1cnc(Nc2ccc(N3CCOCC3)cc2)c2ncnn12 [Compound 12, 5-(5-Methyl-1H-pyrazol-4-yl)-N-(4-morpholinophenyl)-[1,2,4]triazolo[1,5-a]pyrazin-8-amine] | 6.00 to 6.30 | < 6.00 | 6.00 to 6.30
NC(=O)c1ccc(-c2cnc(Nc3ccc(N4CCOCC4)cc3)c3ncnn23)s1 [Compound 13] | 6.30 to 7.00 | < 6.00 | < 6.00
NC(=O)c1c(F)cc(-c2cnc(Nc3ccc(N4CCOCC4)cc3)c3ncnn23)cc1F [Compound 14] | < 6.00 | < 6.00 | < 6.00
NC(=O)c1cc(-c2cnc(Nc3ccc(N4CCOCC4)cc3)c3ncnn23)cs1 [Compound 15, 4-[8-(4-Morpholin-4-yl-phenylamino)-[1,2,4]triazolo[1,5-a]pyrazin-5-yl]-thiophene-2-carboxylic acid amide] | 6.30 to 7.00 | 6.00 to 6.30 | 6.30 to 7.00
Cc1[nH]ncc1-c1cnc(Nc2ccc(N3CCN(C)CC3)cc2)c2ncnn12 [Compound 16, 5-(5-Methyl-1H-pyrazol-4-yl)-N-(4-(4-methylpiperazin-1-yl)phenyl)-[1,2,4]triazolo[1,5-a]pyrazin-8-amine] | < 6.00 | < 6.00 | < 6.00
Fc1cc(Nc2ncc(-c3cn[nH]c3)n3ncnc23)ccc1N1CCOCC1 [Compound 17, (3-Fluoro-4-morpholinophenyl)-5-(1H-pyrazol-4-yl)-[1,2,4]triazolo[1,5-a]pyrazin-8-amine] | < 6.00 | < 6.00 | < 6.00
Clc1cc(Nc2ncc(-c3cn[nH]c3)n3ncnc23)ccc1N1CCOCC1 [Compound 18] | 6.00 to 6.30 | < 6.00 | < 6.00
NC(=O)c1cc(Nc2ncc(-c3cn[nH]c3)n3ncnc23)ccc1N1CCOCC1 [Compound 19, 5-(5-(1H-Pyrazol-4-yl)-[1,2,4]triazolo[1,5-a]pyrazin-8-ylamino)-2-morpholinobenzamide] | < 6.00 | < 6.00 | < 6.00

SMILES | pEC50 [1] | pEC50 [2] | pIC50 (MAPKAPK5)
c1nc2c(Nc3ccc(OCCN4CCOCC4)cc3)ncc(-c3cn[nH]c3)n2n1 [Compound 20] | < 6.00 | < 6.00 | < 6.00
NC(=O)c1cc(-c2cnc(Nc3ccc(OCCN4CCOCC4)cc3)c3ncnn23)cs1 [Compound 21, 4-(8-(4-(2-Morpholinoethoxy)phenylamino)-[1,2,4]triazolo[1,5-a]pyrazin-5-yl)thiophene-2-carboxamide] | 6.30 to 7.00 | < 6.00 | 6.30 to 7.00
NC(=O)c1ccc(-c2cnc(Nc3ccc(OCCN4CCOCC4)cc3)c3ncnn23)s1 [Compound 22, 5-(8-(4-(2-Morpholinoethoxy)phenylamino)-[1,2,4]triazolo[1,5-a]pyrazin-5-yl)thiophene-2-carboxamide] | < 6.00 | < 6.00 | 6.00 to 6.30
c1cc(-c2cnc(Nc3ccc(N4CCOCC4)cc3)c3ncnn23)[nH]n1 [Compound 23, (4-Morpholin-4-yl-phenyl)-[5-(2H-pyrazol-3-yl)-[1,2,4]triazolo[1,5-a]pyrazin-8-yl]-amine] | < 6.00 | < 6.00 | < 6.00
C[C@@H]1CN(c2ccc(Nc3ncc(-c4csc(C(N)=O)c4)n4ncnc34)cc2)C[C@H](C)O1 [Compound 24] | 6.30 to 7.00 | < 6.00 | 6.00 to 6.30
FC(F)(F)c1cc(Nc2ncc(-c3cn[nH]c3)n3ncnc23)ccc1N1CCOCC1 [Compound 25] | < 6.00 | < 6.00 | < 6.00
CC(C)N1CCN(c2ccc(Nc3ncc(-c4cc(F)c(C(N)=O)c(F)c4)n4ncnc34)cc2)CC1 [Compound 26] | < 6.00 | 6.00 to 6.30 | < 6.00
NC(=O)c1cc(-c2cnc(Nc3ccc(N4CCNCC4)cc3)c3ncnn23)cs1 [Compound 27] | 6.00 to 6.30 | < 6.00 | 6.30 to 7.00
CC(C)N1CCN(c2ccc(Nc3ncc(-c4csc(C(N)=O)c4)n4ncnc34)cc2)CC1 [Compound 28, 4-(8-(4-(4-Isopropylpiperazin-1-yl)phenylamino)-[1,2,4]triazolo[1,5-a]pyrazin-5-yl)thiophene-2-carboxamide] | 6.00 to 6.30 | < 6.00 | 7.00 to 9.00
NC(=O)c1coc(-c2cnc(Nc3ccc(N4CCOCC4)cc3)c3ncnn23)c1 [Compound 29, 5-(8-(4-Morpholinophenylamino)-[1,2,4]triazolo[1,5-a]pyrazin-5-yl)furan-3-carboxamide] | < 6.00 | < 6.00 | < 6.00
CC(C)N1CCN(c2ccc(Nc3ncc(-c4cc(C(N)=O)co4)n4ncnc34)cc2)CC1 [Compound 30] | < 6.00 | < 6.00 | < 6.00
C[C@@H]1CN(c2ccc(Nc3ncc(-c4cn[nH]c4)n4ncnc34)cc2)[C@@H](C)CN1C [Compound 31] | < 6.00 | < 6.00 | 6.30 to 7.00
C[C@@H]1CN(c2ccc(Nc3ncc(-c4csc(C(N)=O)c4)n4ncnc34)cc2)[C@@H](C)CN1C [Compound 32] | 6.00 to 6.30 | 6.00 to 6.30 | 6.30 to 7.00
NC(=O)c1cc(-c2cnc(Nc3ccc(N4CCOCC4)cc3)c3ncnn23)co1 [Compound 34, 4-(8-(4-Morpholinophenylamino)-[1,2,4]triazolo[1,5-a]pyrazin-5-yl)furan-2-carboxamide] | 7.00 to 9.00 | < 6.00 | 6.30 to 7.00
O=C1NCCc2cc(-c3cnc(Nc4ccc(N5CCOCC5)cc4)c4ncnn34)ccc21 [Compound 35, 6-(8-(4-Morpholinophenylamino)-[1,2,4]triazolo[1,5-a]pyrazin-5-yl)-3,4-dihydroisoquinolin-1(2H)-one] | 6.30 to 7.00 | < 6.00 | < 6.00
